Experiment [1] has as its target Recombinant human Bcl-2 protein (Homo sapiens (Human), UniProt P10415). Briefly: Bcl-2 TR-FRET Assay. In kind it is binding. Put shortly:
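0.05 nM recombinant Bcl-2 preincubated 0.5 h at room temperature with 10-point compound dilutions (top final 1, 0.1, 0.02 or 0.01 uM) in pH 7.5 phosphate buffer. FITC-Bak peptide (0.5 nM) and anti-6His Tb cryptate then added for 1 h. TR-FRET read; IC50 from four-parameter logistic fit.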
For orientation: TR-FRET usually uses a lanthanide donor and a delayed reading to cut background.

The target in experiment [2] is recombinant human Bcl-2-G101V protein (Homo sapiens (Human), UniProt P10415, G101V). Briefly: Bcl-2-G101V TR-FRET Assay. In kind it is binding. Particulars: Bcl-2 G101V mutant, TR-FRET; read-out: Biochemical assay (IC50, nM) Bcl-2 G101V. Put shortly: (§1)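 Ex337/em490 & 520 nm TR-FRET; % inhibition of Bcl-2-G101V–ligand interaction from 490:520 ratio vs. increasing compound conc.; IC50 by 4-parameter logistic fit.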

Experiment [3] deals with recombinant human Bcl-2-G101V protein. In words: Bcl-2-G101V TR-FRET Assay. In kind it is binding. Particulars: for Ratio of Bcl-2 G101V/WT: ratio of biochemical IC50 Bcl-2 G101V / Bcl-2 WT; for ratio of IC50 of Bcl-2 G101V/Bcl-2 wt, compared with Example F132b in WO2019210828 and ABT-199 (venetoclax): comparison in words. Put shortly: as §1
The subject of experiment [4] is RS4;11 (BCL-2 dependent acute lymphoblastic leukemia cell line). In words: RS4;11 Cell Proliferation Assay. Type of experiment: cell-based. The note with it: Homo sapiens, RS4-11, RS4;11 cells, read-out: Cellular proliferation assay (IC50, nM) RS4. Put shortly:
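RS4;11 cells, 50,000 per well in RPMI-1640 with 10% FBS, treated 48 h at 37 °C with a 10-point dilution series topping at 1 μM. Viability read by CellTiter-Glo ATP luminescence; mean IC50 reported.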

In experiment [5] the test system is BCL-2 G101V knock-in cell line H96 (derive from RS4;11). Briefly: Bcl 2-G101V Knock-In RS4;11 Cell Proliferation Assay. In kind it is cell-based. The note with it: Homo sapiens, RS4;11 Bcl-2 G101V knock-in clone H96, 48 hrs, CellTiter-GLO, read-out: Cellular proliferation assay (IC50, nM) RS4. In short, it runs like this:
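H96, a CRISPR-generated RS4;11 clone carrying BCL2-G101V knock-in (WES/RNA-seq validated), seeded 50,000 per well and exposed 48 h at 37 °C to 10-point dilutions topping at 1 or 10 μM. Viability by CellTiter-Glo luminescence; mean IC50.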
(In general: ATP-based viability assays read luminescence as a measure of living cells.)

For experiment [6], the target named is recombinant human Bcl-2 D103Y protein (Homo sapiens (Human), UniProt P10415, D103Y). In words: Bcl-2-D103Y Biochemical Assay (TR-FRET). Type of experiment: binding. Particulars: for IC50: TR-FRET, FITC labeled Bak peptide; for Ratio of Bcl-2 D103Y/Bcl-2 WT: ratio of IC50; for ratio of Bcl-2 D103Y/Bcl-2 wt, compared with F91b in WO2019210828: comparison in words. Put shortly:
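Recombinant human Bcl-2 D103Y binding to its ligand measured by TR-FRET (ex 337 nm, em 490/520 nm) with increasing compound concentrations. Percent inhibition from the 490/520 nm ratio; IC50 from four-parameter logistic fit.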

Setting [7] is: Bcl-2 wild type, TR-FRET, read-out: Biochemical assay (IC50, nM) Bcl-2 WT.
The mark [8] stands for this setting: wild type Bcl-2, unit inferred, read-out: Bcl-2 WT.

From US20240376097A1, “BCL-2 Inhibitor” (BeiGene Ltd., priority 2020, published 2024) come the findings set out here.

Where two headings read alike, the source gives them in different places.

For `COCCN1CCN(C2CC3(CCN(c4ccc(C(=O)NS(=O)(=O)c5cc6c(c([N+](=O)[O-])c5)N[C@H](C[C@H]5CC[C@H](O)CC5)CO6)c(Oc5cnc6[nH]ccc6c5)c4)CC3)C2)C(c2ccccc2C(C)C)C1` (stereo partly drawn) [Example 14, 2-((1H-pyrrolo[2,3-b]pyridin-5-yl)oxy)-N-(((R)-3-(((1r, 4R)-4-hydroxycyclohexyl)methyl)-5-nitro-3,4-dihydro-2H-benzo[b][1,4]oxazin-7-yl)sulfonyl)-4-(2-(2-(2-isopropylphenyl)-4-(2-methoxyethyl)piperazin-1-yl)-7-azaspiro[3.5]nonan-7-yl)benzamide], the IC50 in experiment [1] (setting [7]) came out at 0.0065 nM; in experiment [1] (setting [8]) it was 0.0065 nM; in experiment [2] it was 0.093 nM; in experiment [4] it was 0.45 nM; in experiment [5] it was 5.16 nM; in experiment [6], 0.084 nM. Further, the “Ratio of Bcl-2 G101V/WT” value in experiment [3] is reported as 14.3. The “Ratio of Bcl-2 D103Y/Bcl-2 WT” value in experiment [6] is on record as 13.
Regarding `CC(C)c1ccccc1C1CN(CC2CCCCC2)CCN1C1CC2(CCN(c3ccc(C(=O)NS(=O)(=O)c4ccc(NC[C@H]5CC[C@](C)(O)CC5)c([N+](=O)[O-])c4)c(Oc4cnc5[nH]ccc5c4)c3)CC2)C1` (some centres unmarked) [Example 16, 2-((1H-pyrrolo[2,3-b]pyridin-5-yl)oxy)-4-(2-(4-(cyclohexylmethyl)-2-(2-isopropylphenyl)piperazin-1-yl)-7-azaspiro[3.5]nonan-7-yl)-N-((4-((((1r,4r)-4-hydroxy-4-methylcyclohexyl)methyl)amino)-3-nitrophenyl)sulfonyl)benzamide], the IC50 worked out at 0.26 nM in experiment [1] (setting [7]); 0.26 nM in experiment [1] (setting [8]); 1.7 nM in experiment [2]; 0.81 nM in experiment [4]; 8.6 nM in experiment [5]; 0.63 nM in experiment [6]. Besides, in experiment [3], the “ratio of IC50 of Bcl-2 G101V/Bcl-2 wt, compared with Example F132b in WO2019210828 and ABT-199 (venetoclax)” value was “much lower”. The “Ratio of Bcl-2 G101V/WT” value in experiment [3] worked out at 6.5. For the same compound, the “ratio of Bcl-2 D103Y/Bcl-2 wt, compared with F91b in WO2019210828” value in experiment [6] is “significantly lower”. Besides, in experiment [6], the “Ratio of Bcl-2 D103Y/Bcl-2 WT” value amounted to 2.5.
In the case of `CC(C)c1ccccc1C1CN(CC23CC(C2)C3)CCN1C1CC2(CCN(c3ccc(C(=O)NS(=O)(=O)c4ccc(NC[C@H]5CC[C@](C)(O)CC5)c([N+](=O)[O-])c4)c(Oc4cnc5[nH]ccc5c4)c3)CC2)C1` (some centres unmarked) [Example 18, 2-((1H-pyrrolo[2,3-b]pyridin-5-yl)oxy)-4-(2-(4-(bicyclo[1.1.1]pentan-1-ylmethyl)-2-(2-isopropylphenyl)piperazin-1-yl)-7-azaspiro[3.5]nonan-7-yl)-N-((4-((((1r,4r)-4-hydroxy-4-methylcyclohexyl)methyl)amino)-3-nitrophenyl)sulfonyl)benzamide], the IC50 was 0.079 nM in experiment [1] (setting [7]); 0.079 nM in experiment [1] (setting [8]); 0.71 nM in experiment [2]; 0.61 nM in experiment [4]; 4.9 nM in experiment [5]; 0.43 nM in experiment [6]. In addition, the “Ratio of Bcl-2 G101V/WT” value in experiment [3] came out at 9.0. Besides, the “Ratio of Bcl-2 D103Y/Bcl-2 WT” value in experiment [6] is 5.4.
Turning to `COc1ccc(CN2CCN(C3CC4(CCN(c5ccc(C(=O)NS(=O)(=O)c6ccc(NC[C@H]7CC[C@](C)(O)CC7)c([N+](=O)[O-])c6)c(Oc6cnc7[nH]ccc7c6)c5)CC4)C3)[C@@H](c3ccccc3C(C)C)C2)cc1` [Example 19b, 2-((1H-pyrrolo[2,3-b]pyridin-5-yl)oxy)-N-((4-((((1r,4r)-4-hydroxy-4-methylcyclohexyl)methyl)amino)-3-nitrophenyl)sulfonyl)-4-(2-((S)-2-(2-isopropylphenyl)-4-(4-methoxybenzyl)piperazin-1-yl)-7-azaspiro[3.5]nonan-7-yl)benzamide], the IC50 turned out to be 0.16 nM in experiment [1] (setting [7]); 0.16 nM in experiment [1] (setting [8]); 10 nM in experiment [2]; 6.8 nM in experiment [4]; 44 nM in experiment [5]; 16 nM in experiment [6]. Also, the “Ratio of Bcl-2 G101V/WT” value in experiment [3] is 62.5. Also, in experiment [6], the “Ratio of Bcl-2 D103Y/Bcl-2 WT” value is recorded as 100.
Turning to `CC(C)c1ccccc1C1CN(Cc2ccoc2)CCN1C1CC2(CCN(c3ccc(C(=O)NS(=O)(=O)c4ccc(NC[C@H]5CC[C@](C)(O)CC5)c([N+](=O)[O-])c4)c(Oc4cnc5[nH]ccc5c4)c3)CC2)C1` (some centres unmarked) [Example 20, 2-((1H-pyrrolo[2,3-b]pyridin-5-yl)oxy)-4-(2-(4-(furan-3-ylmethyl)-2-(2-isopropylphenyl)piperazin-1-yl)-7-azaspiro[3.5]nonan-7-yl)-N-((4-((((1r,4r)-4-hydroxy-4-methylcyclohexyl)methyl)amino)-3-nitrophenyl)sulfonyl)benzamide], the IC50 in experiment [1] (setting [7]) amounted to 0.053 nM; in experiment [1] (setting [8]) it was 0.053 nM; in experiment [2], 0.58 nM; in experiment [4] it was 0.62 nM; in experiment [5], 5.91 nM; in experiment [6], 0.25 nM. The “Ratio of Bcl-2 G101V/WT” value in experiment [3] came out at 10.9. Besides, the “Ratio of Bcl-2 D103Y/Bcl-2 WT” value in experiment [6] is recorded as 4.6.
Turning to `CC(C)c1ccccc1C1CN(Cc2cnn(C)c2)CCN1C1CC2(CCN(c3ccc(C(=O)NS(=O)(=O)c4ccc(NC[C@H]5CC[C@](C)(O)CC5)c([N+](=O)[O-])c4)c(Oc4cnc5[nH]ccc5c4)c3)CC2)C1` (some centres unmarked) [Example 22, 2-((1H-pyrrolo[2,3-b]pyridin-5-yl)oxy)-N-((4-((((1r,4r)-4-hydroxy-4-methylcyclohexyl)methyl)amino)-3-nitrophenyl)sulfonyl)-4-(2-(2-(2-isopropylphenyl)4-((1-methyl-1H-pyrazol-4-yl)methyl)piperazin-1-yl)-7-azaspiro[3.5]nonan-7-yl) benzamide], the IC50 in experiment [1] (setting [7]) turned out to be 0.013 nM; in experiment [1] (setting [8]), 0.013 nM; in experiment [2], 0.079 nM; in experiment [4], 0.46 nM; in experiment [5] it was 2.6 nM; in experiment [6], 0.12 nM. In addition, the “Ratio of Bcl-2 G101V/WT” value in experiment [3] is listed as 6.1. Besides, the “Ratio of Bcl-2 D103Y/Bcl-2 WT” value in experiment [6] was determined as 9.2.
For the compound `CC(C)c1ccccc1C1CN(Cc2ccccc2)CCN1C1CC2(CCN(c3ccc(C(=O)NS(=O)(=O)c4ccc(NC[C@H]5CC[C@](C)(O)CC5)c([N+](=O)[O-])c4)c(Oc4cnc5[nH]ccc5c4)c3)CC2)C1` (some centres unmarked) [Example 23, 2-((1H-pyrrolo[2,3-b]pyridin-5-yl)oxy)-4-(2-(4-benzyl-2-(2-isopropylphenyl)piperazin-1-yl)-7-azaspiro[3.5]nonan-7-yl)-N-((4-((((1r,4r)-4-hydroxy-4-methylcyclohexyl)methyl)amino)-3-nitrophenyl)sulfonyl)benzamide], the IC50 in experiment [1] (setting [7]) stood at 0.45 nM; in experiment [1] (setting [8]) it was 0.13 nM; in experiment [2] it was 2.1 nM; in experiment [4], 0.39 nM; in experiment [5], 2.66 nM; in experiment [6], 0.26 nM. Besides, the “ratio of IC50 of Bcl-2 G101V/Bcl-2 wt, compared with Example F132b in WO2019210828 and ABT-199 (venetoclax)” value in experiment [3] is “much lower”. Moreover, in experiment [3], the “Ratio of Bcl-2 G101V/WT” value came to 4.7. The “ratio of Bcl-2 D103Y/Bcl-2 wt, compared with F91b in WO2019210828” value in experiment [6] is recorded as “significantly lower”. The “Ratio of Bcl-2 D103Y/Bcl-2 WT” value in experiment [6] turned out to be 2.
Consider `CC(C)c1ccccc1C1CN(CCc2ccccc2)CCN1C1CC2(CCN(c3ccc(C(=O)NS(=O)(=O)c4ccc(NC[C@H]5CC[C@](C)(O)CC5)c([N+](=O)[O-])c4)c(Oc4cnc5[nH]ccc5c4)c3)CC2)C1` (some centres unmarked) [Example 26, 2-((1H-pyrrolo[2,3-b]pyridin-5-yl)oxy)-N-((4-((((1r,4r)-4-hydroxy-4-methylcyclohexyl)methyl)amino)-3-nitrophenyl)sulfonyl)-4-(2-(2-(2-isopropylphenyl)-4-phenethylpiperazin-1-yl)-7-azaspiro[3.5]nonan-7-yl)benzamide], for which the IC50 in experiment [1] (setting [7]) was 0.11 nM; in experiment [1] (setting [8]), 0.11 nM; in experiment [2], 1.4 nM; in experiment [4], 0.85 nM; in experiment [5], 8.48 nM; in experiment [6], 0.51 nM. Further, the “Ratio of Bcl-2 G101V/WT” value in experiment [3] stood at 12.7. The “Ratio of Bcl-2 D103Y/Bcl-2 WT” value in experiment [6] was 4.7.
